Patent publication US20130178453A1, “Cannabinoid Agonists” (priority 2010, published 2013)
pEC50: −log10 of the molar value. “And” between values parts separate entries of the source, which are not always exact repeats. Equal values may be shown once.

Tests used:
hCB1 [1] = target: T1, hCB1 (Homo sapiens, UniProt P21554); experiment: hCB1 GTPγS agonist assay (HEK-293 membranes); type: biochemical; conditions: for EC50: GTPγS agonist, HEK membranes, read-out: hCB1 EC50 (GTPyS ag, nM, HEK)
Text: cDNA expression clones for human CB 1 (hCB1, Genbank Accession No. AY225225) and human CB2 (hCB2, Genbank Accession No. AY242132) expressed in vector pcDNA3.1+ were purchased from UMR cDNA Resource Center, Rolla, Mo. (Clone ID CNR01L000 for hCB1; CNR0200000 for hCB2).
Stable, HEK-293-derived cell lines that recombinantly express hCB1 or hCB2 were established. In brief, the clone hCB1 (CNR1L) or hCB2 (CNR2) was transfected into human embryonic kidney cells (HEK-293) using Lipofectamine 2000 (Gibco, Cat#11668-019) according to the manufacturer's protocol. Transfected clones were isolated by single colony purification and clones were screened for receptor expression using a whole cell, ^3H—CP 55,940 radioligand binding assay. HEK-293 stable cells were maintained in Dulbecco's modified Eagles medium (DMEM) containing 10% fetal bovine serum, 2 mM L-glutamine and 0.5 mg/mL G-418.
Membranes were isolated from transfected cells as follows. Monolayers of cultured cells were washed twice with phosphate-buffered saline (PBS). Cells were scraped into 20 mM HEPES, pH 7.4, 10 mM EDTA containing complete cocktail protease inhibitors (Roche, Catalog #11 697 498 001), and were homogenized by an electric-powered mechanical probe homogenizer (Omni GLH; probe G7-195S) for 40 seconds at 7000 rpm. Homogenates were centrifuged 10 minutes at 1000×g at 4° C. The supernatant was collected and was centrifuged for 1 hour at 40,000×g. The supernatant was then decanted and the resulting pellet was re-suspended in 20 mM HEPES, pH 7.4, 5 mM MgCl2, 1 mM EDTA, 10% sucrose with complete cocktail protease inhibitors. Protein concentration of membrane suspensions were measured by Bradford Protein Assay using bovine serum albumin as the standard (BioRad catalog #500-0006). Protein concentrations of membrane suspensions were adjusted with the final buffer in the range of 5 to 10 mg/mL and were stored at −80° C. until further use.
^35S GTPγS binding assays were performed by incubating recombinant cell membranes prepared above (5 μg) in the presence of scintillation proximity assay beads (SPA beads, Catalog #RPNQ0252 GE Healthcare, Buckinghamshire, England) in GTPγS binding buffer [50 mM HEPES (pH 7.4), 100 mM NaCl, 5 mM MgCl2, 0.001% saponin (Sigma catalog #S4521)] supplemented with 20 uM GDP (Sigma catalog #G7127) in the presence or absence of test compound. The reaction was carried out in 96-well microplates with 0.1 nM [^35S]GTPγS (specific activity=1250 Ci/mmol; Perkin Elmer catalog #NEG030X250UC) in a final volume of 100 μL. After a 90 min room temperature incubation, the reaction was analyzed using a scintillation counter (Perkin Elmer Microbeta instrument). Binding data were analyzed using GraphPad Prism.

hCB1 [2] = target: T1, hCB1; experiment: hCB1 cAMP agonist assay (HEK-293 cells); type: cell-based; conditions: for EC50: cAMP agonist, HEK
hCB1 [3] = target: T1, hCB1; experiment: hCB1 radioligand binding assay ([3H]-CP 55,940 displacement); conditions: hCB1 IC50 (CP displ, nM, HEK), HEK membranes
Procedure, shortened: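 Membranes from stable HEK-293 cells expressing recombinant hCB1 (2-10 μg protein) incubated 90 minutes at room temperature with 0.5 nM [3H]-CP 55,940 in 50 mM Tris-HCl pH 7.5, 5 mM MgCl2, 2.5 mM EDTA, 0.1% fatty acid free BSA. Filtration then scintillation counting; nonspecific binding with 1 μM unlabelled CP 55,940.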

hCB2 [4] = target: T2, hCB2 (Homo sapiens, UniProt P34972); experiment: hCB2 GTPγS agonist assay (HEK-293 membranes); type: biochemical
T2 sequence (P34972 whole entry): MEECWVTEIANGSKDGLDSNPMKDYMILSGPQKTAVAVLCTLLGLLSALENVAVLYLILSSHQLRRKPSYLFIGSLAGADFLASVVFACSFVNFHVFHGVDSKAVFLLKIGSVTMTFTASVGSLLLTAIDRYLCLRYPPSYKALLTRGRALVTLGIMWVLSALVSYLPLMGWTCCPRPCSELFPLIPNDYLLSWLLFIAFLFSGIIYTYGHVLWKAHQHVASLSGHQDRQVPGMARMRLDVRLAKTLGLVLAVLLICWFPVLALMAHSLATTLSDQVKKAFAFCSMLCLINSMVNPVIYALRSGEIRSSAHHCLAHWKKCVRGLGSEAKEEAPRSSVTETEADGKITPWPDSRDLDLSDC
Procedure, shortened: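 Membranes from HEK-293 cells transfected with human CB2 (5 μg) incubated with SPA beads, 0.1 nM [35S]GTPγS and 20 uM GDP in 50 mM HEPES pH 7.4, 100 mM NaCl, 5 mM MgCl2, 0.001% saponin. Incubation 90 min at room temperature. Agonist-stimulated binding read by scintillation counting.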

hCB2 [5] = target: T2, hCB2; experiment: hCB2 cAMP agonist assay (HEK-293 cells); type: cell-based
Procedure, shortened: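 HEK-293 cells stably expressing hCB2, treated 30 min at 37° C with compound in HBSS/10 mM HEPES/0.1% BSA alongside forskolin (90 uM in the 3× solution, not final).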

hCB2 [6] = target: T2, hCB2; experiment: hCB2 radioligand binding assay ([3H]-CP 55,940 displacement); conditions: hCB2 IC50 (CP displ, nM, HEK), HEK membranes
Procedure, shortened: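 Membranes from cells transfected with human CB2 cDNA (pcDNA3.1+), kept in 20 mM HEPES pH 7.4, MgCl2, EDTA, sucrose with protease inhibitors.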

[7] = 96-well, read-out: hCB1 EC50 (cAMP ag, nM, HEK (96-well))

T1 sequence (P21554 whole entry): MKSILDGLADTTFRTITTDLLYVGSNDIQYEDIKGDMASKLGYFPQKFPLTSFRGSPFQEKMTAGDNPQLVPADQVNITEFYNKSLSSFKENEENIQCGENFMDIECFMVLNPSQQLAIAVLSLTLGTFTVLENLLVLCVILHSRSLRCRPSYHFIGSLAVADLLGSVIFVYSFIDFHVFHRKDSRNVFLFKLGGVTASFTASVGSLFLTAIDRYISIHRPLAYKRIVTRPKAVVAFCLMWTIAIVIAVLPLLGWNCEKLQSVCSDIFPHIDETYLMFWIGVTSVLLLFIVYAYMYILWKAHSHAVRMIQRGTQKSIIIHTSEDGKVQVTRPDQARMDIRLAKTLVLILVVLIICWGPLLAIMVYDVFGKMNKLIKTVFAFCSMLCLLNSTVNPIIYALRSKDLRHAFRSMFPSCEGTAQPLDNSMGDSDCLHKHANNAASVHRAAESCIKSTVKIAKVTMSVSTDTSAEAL

Compound	pEC50 (hCB1 [1])	pEC50 (hCB1 [2])	IC50 (hCB1 [3])	pEC50 (hCB2 [4])	pEC50 (hCB2 [5])	IC50 (hCB2 [6]) [nM]	EC50 (hCB1 [1]) [nM]	EC50 (hCB1 [2]; [7]) [nM]	EC50 (hCB1 [2]; 24-well, read-out: hCB1 EC50 (cAMP ag, nM HEK (24-well))) [nM]
CCCn1cc(C(=O)c2cc3ccsc3n2CC)c2ccccc21 [Compound I-70]	6.00 to 7.00	6.00 to 7.00	100 to 1000 nM	> 7.00	> 7.00	< 100			
CCCn1c(C(=O)c2c(C)[nH]c3sccc23)cc2ccsc21 [Compound I-84]							> 10000	< 100	
CCCn1c(C(=O)c2c(C)n(CCC3CCOCC3)c3ccccc23)cc2ccsc21 [Compound I-57]	6.00 to 7.00	6.00 to 7.00	100 to 1000 nM	> 7.00	> 7.00	< 100			
CCCn1c(C(=O)c2c(C)n(CCN3CCOCC3)c3sccc23)cc2ccccc21 [Compound I-11]			< 100 nM	> 7.00	> 7.00	< 100	100 to 1000		
CCCCCn1c(C)c(C(=O)c2cc3ccsc3n2CCC)c2ccccc21 [Compound I-60]	6.00 to 7.00	> 7.00	< 100 nM	> 7.00	> 7.00	< 100			
CCCn1c(C(=O)c2cn(CC3CCOCC3)c3ccccc23)cc2ccsc21 [Compound I-41]	> 7.00	> 7.00	< 100 nM	> 7.00	> 7.00	< 100			
CCCn1c(C(=O)c2cn(CC)c3ccccc23)cc2ccsc21 [Compound I-42]			< 100 nM	> 7.00	> 7.00	< 100	100 to 1000	100 to 1000	
CCCn1c(C(=O)c2c(C)n(CCC)c3sccc23)cc2ccsc21 [Compound I-83]					> 7.00		100 to 1000	< 100	< 100
CCCn1c(C(=O)c2c(C)n(CC3CCOCC3)c3ccccc23)cc2ccsc21 [Compound I-66]	6.00 to 7.00	> 7.00	100 to 1000 nM	> 7.00	> 7.00	< 100			
CCn1c(C(=O)c2cn(CCCNS(C)(=O)=O)c3ccccc23)cc2ccsc21 [Compound I-28]			100 to 1000 nM	> 7.00	> 7.00	< 100	1000 to 10000	100 to 1000	
CCCn1cc(C(=O)c2cc3ccsc3n2CC)c2cccnc21 [Compound I-34]	6.00 to 7.00	5.00 to 6.00	1000 to 10000 nM	> 7.00	> 7.00	< 100			
CCCn1cc(C(=O)c2cc3ccsc3n2CCC)c2cccnc21 [Compound I-45]	6.00 to 7.00	6.00 to 7.00	< 100 nM and 100 to 1000 nM	> 7.00	> 7.00	< 100			
CCn1c(C(=O)c2cn(CC3CCOCC3)c3ccccc23)cc2ccsc21 [Compound I-16]	> 7.00	> 7.00	< 100 nM	> 7.00	> 7.00	< 100			
CCCn1cc(C(=O)c2cc3ccsc3n2CCC)c2ccccc21 [Compound I-62]	6.00 to 7.00	> 7.00	< 100 nM	> 7.00	> 7.00	< 100			
CCn1c(C(=O)c2c3c(n(CC4CCOCC4)c2C)CCCC3)cc2ccsc21 [Compound I-86]			< 100 nM	> 7.00	> 7.00	< 100	100 to 1000	100 to 1000	
